From patent publication US6627650B2, “Indenoindolone compounds” (Les Laboratoires Servier, priority 2001, dated 2003) come the findings set out here.

Assay [1] concerns HT29. The assay can be described thus: In vitro cytotoxicity, microculture tetrazolium assay, HT29. In kind it is cell-based, human. Conditions: HT-29, 96 h, read-out: IC50 HT29. Here is the method:
(§1) Five cell lines were used:
1 human colon carcinoma, HT29.
(§2) The cells are cultured in RPMI 1640 complete culture medium comprising 10% fetal calf serum, 2 mM glutamine, 50 units/ml of penicillin, 50 μg/ml of streptomycin and 10 mM Hepes, pH 7.4. The cells are distributed on microplates and are exposed to the cytotoxic compounds. The cells are then incubated for four doubling periods (2 days: L1210, P388, or 4 days: A549, HT29, A-431). The number of viable cells is then quantified by a colorimetric assay, the microculture tetrazolium assay (Cancer Res. 1987, 47 939-942).
(§3) The results are expressed as IC50, the concentration of product that inhibits the proliferation of the treated cells by 50% compared with the untreated cells.

Assay [2] deals with P388. In words: In vitro cytotoxicity, microculture tetrazolium assay, P388. Conditions: Mus musculus, 48 h; P388 murine leukaemia, 2 days incubation, inhibition of proliferation. It counts as cell-based. Here is the method: as §1, §2, §3
Assay [3] deals with L1210. The assay can be described thus: In vitro cytotoxicity, microculture tetrazolium assay, L1210. It counts as cell-based. Conditions: Mus musculus, 48 h; L1210 murine leukaemia, 2 days incubation, inhibition of proliferation. The method, then: as §1, §2, §3
Assay [4] relates to A549. The assay can be described thus: In vitro cytotoxicity, microculture tetrazolium assay, A549. In kind it is cell-based, human. Conditions: read-out: IC50 A549. The method, then: as §1
1 non-small-cell human lung carcinoma, A549.
as §2, §3

Assay [5] concerns A-431. The assay can be described thus: In vitro cytotoxicity, microculture tetrazolium assay, A-431. It counts as cell-based, human. Conditions: read-out: IC50 A-431. Here is the method: as §1
1 human epidermoid carcinoma, A-431.
as §2, §3

The subject of assay [6] is L1210 cells. The assay can be described thus: Action on the cell cycle (L1210), flow cytometry. It counts as cell-based, murine. As to conditions: concentration 0.25 μM, after 21 hours (control: 20%). Here is the method:
L1210 cells are incubated for 21 hours at 37° C. in the presence of various concentrations of compound tested. The cells are then fixed using 70% ethanol (v/v), washed twice in PBS and incubated for 30 minutes at 20° C. in PBS that contains 100 μg/ml of RNAse and 50 μg/ml of propidium iodide. The distribution of the cells in the various phases of the cell cycle are then analysed by flow cytometry. The results are expressed as a percentage of the cells that have accumulated in the G2+M phase after 21 hours compared with the control (control: 20%). By way of example, at a concentration of 0.25 μM the compounds of Examples 1 and 18 induce a 75% accumulation of the cells in the G2+M phase after 21 hours.

Assay [7] concerns C38 colon carcinoma. In words: In vivo anti-tumour activity on established C38 colon carcinoma. Conditions: from a dose of 25 mg/kg, i.v. once a week for 3 weeks (days 10, 17 and 24), B6D2F1 mice, subcutaneous C38. Here is the method: Fragments of C38 colon carcinoma weighing approximately 30 mg were grafted subcutaneously on day 0 onto B6D2F1 mice (Iffa Credo, France). After growth of the tumour, the mice were separated into control (18 animals) and treated (6 to 7 animals) groups, which were homogeneous in respect of the tumour size. The products were administered by the i.v. route once a week for 3 weeks (on days 10, 17 and 24) at their maximum tolerated dose (MTD), MTD/2 and MTD/4.
The tumours were measured twice per week and the tumour volumes were calculated according to the formula: volume (mm^3)=length (mm)×width^2 (mm^2)/2.
The anti-tumour activity is expressed as % T/C: [formula]
VO and Vt denoting, respectively, the initial volume of the tumour and its volume at the time of measurement t.
The optimum dose is the dose that yields the lowest T/C without toxicity (premature death or loss of weight greater than 20%).

SMILES strings stand for the structures. pIC50: −log10 of the molar value. Where a name gives a salt, the structure may show the parent alone. Read-outs that look alike come from different tables or passages of the source.

Regarding `C#CCO/N=C1/c2cc(OC)c(OC)cc2-c2[nH]c3ccc(OCCN(C)C)cc3c21.Cl` [Example 18, (10Z)-8-(2-Dimethylaminoethoxy)-2,3-dimethoxyindeno[1,2-b]indole-10(5H)-one O-(2-Propynyl)oxime Hydrochloride], the pIC50 was 6.74 in assay [1] (HT29 human colon carcinoma, 4 days incubation); 6.62 in assay [2]; 6.98 in assay [3]; 7.00 in assay [4] (96 h, A549 non-small-cell human lung carcinoma, 4 days incubation); 6.76 in assay [5] (96 h, A-431 human epidermoid carcinoma, 4 days incubation). Besides, the “accumulation of the cells in the G2+M phase” value in assay [6] came to 75%. In addition, in assay [7], the “T/C (tumour volume)” value is listed as 24%.

Regarding `C#CC(O/N=C1/c2cc(OC)c(OC)cc2-c2[nH]c3ccc(OCCN(C)C)cc3c21)c1ccccc1` (centres unmarked) [Example 1, (10Z)-8-(2-Dimethylaminoethoxy)-2,3-dimethoxyindeno[1,2-b]indole-10(5H)-one O-(1-Phenyl-2-Propynyl)oxime Hydrochloride], the pIC50 in assay [1] (Homo sapiens) is 6.61; in assay [4] (Homo sapiens, A549, 96 h) it was 7.15; in assay [5] (Homo sapiens, A-431, 96 h), 7.06. Moreover, the “accumulation of the cells in the G2+M phase” value in assay [6] was determined as 75%.
